Assay results as given in paper PMC7391726, “Fatty acid mimetic PBI-4547 restores metabolic homeostasis via GPR84 in mice with non-alcoholic fatty liver disease” (Scientific Reports, 2020).

Experiments:
[1] = target: T1, GPR84 (Homo sapiens, UniProt Q9NQS5); assay: BRET Gαi2 activation biosensor in HEK293 cells transfected with GPR84; assay type: cell-based
T1 construct: expressed in transfected cells; host or cells: HEK293
From the text: PBI-4547 (2-[3,5-dipentylphenyl]acetate sodium salt) is a medium-chain FA (MCFA) mimetic (Fig. 1A). Accordingly, we examined the signaling properties of PBI-4547 on receptors known to be activated by MCFAs. […] This biosensor consisted of an Rluc8-tagged Gαi2 subunit, a GFP10-tagged Gγ2 subunit, and an untagged Gβ1. Agonist stimulation and receptor activation triggers a physical separation between the Gα-Rluc8 donor and the GFP10-Gγ2 acceptor, resulting in a decrease in BRET signal, whose amplitude is correlated to ligand efficacy. […] (A) Chemical structure of PBI-4547. (B) Gi pathway activation was monitored in HEK293 cells transfected with GPR84 and the Gαi2 activation biosensor. […] (C) β-arrestin 2 recruitment to activated GPR120 receptor was monitored in HEK293 cells transfected with RLuc8-β-arrestin 2 and GPR120-GFP10. (D) Cells transfected with GPR40 and Gαq or Gαi2 activation biosensor were exposed to increasing concentrations of PBI-4547 or to 500 µM of sodium decanoate, and BRET variation compared with vehicle was measured. Cells were exposed to increasing concentrations of PBI-4547 or to 100 µM of GW9508, and BRET variation compared with vehicle was measured. (E) LanthaScreen TR-FRET competitive binding assay of PBI-4547 and PPAR control agonists to the LBD of PPARα, PPARδ and PPARγ. (F) Cell-based GAL4 transactivation assay in HEK293 cells transfected with the LBD of PPARα, PPARδ or PPARγ, and treated with increasing concentrations of PBI-4547 or PPAR control agonists. Data in (B–D) are expressed as means ± SEM of 4–5 experiments; data in (E,F) are from a representative experiment from a total of 3 to 4 independent experiments. BRET measurements in transiently transfected HEK293 cells were performed as previously described. Ligands were incubated with cells at room temperature for 10 min (G protein biosensors) or 25 min (β-arrestin/GPR120) before collecting BRET[2] readings between Rluc8 and GFP10.

[2] = target: T2, PPARγ (Homo sapiens, UniProt P37231); assay: LanthaScreen TR-FRET competitive binding assay, PPARγ LBD; settings: Cheng-Prusoff; read-out: Ki inhibition constant, PPARγ LBD
T2 construct: glutathione S-transferase (GST)-tagged human PPAR-LBD; purchased Fisher Scientific
T2 sequence (P37231 238-503 limits assumed): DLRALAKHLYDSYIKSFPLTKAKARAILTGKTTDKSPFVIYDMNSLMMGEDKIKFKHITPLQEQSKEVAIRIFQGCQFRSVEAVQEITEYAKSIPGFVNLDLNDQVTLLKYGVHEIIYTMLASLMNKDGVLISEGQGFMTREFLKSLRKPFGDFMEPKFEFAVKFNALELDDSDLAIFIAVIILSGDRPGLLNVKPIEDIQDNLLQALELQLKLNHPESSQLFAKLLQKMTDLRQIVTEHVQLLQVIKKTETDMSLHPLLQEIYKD
From the text: The peroxisome proliferator-activated receptors (PPARs), PPARα, PPARδ, and PPARγ are ligand-dependent transcription factors regulated by FAs, including MCFAs, which control expression of several key metabolism-associated genes. We thus characterized the binding and transcriptional activity of PBI-4547 to these receptors. A LanthaScreen TR-FRET competitive binding assay was used to determine the binding affinity of PBI-4547 in comparison to the full control agonists GW7647 (PPARα), GW0742 (PPARδ), and rosiglitazone (PPARγ).
The LanthaScreen time-resolved fluorescence resonance energy transfer (TR-FRET) PPARα, PPARδ and PPARγ competitive binding assay (Fisher Scientific) was performed according to the manufacturer’s protocol. […] The FRET signal was measured using an Infinite M1000 microplate reader by excitation at 332 nm and emission at 520 nm for fluorescein and 490 nm for terbium. Competitive ligand binding to PPAR is detected by a test compound’s ability to displace the Fluormone pan-PPAR Green from the LBD, which results in a decrease of the 520 nm/490 nm TR-FRET ratio. The inhibition constant (Ki) of the competitor ligand was calculated by applying the Cheng-Prusoff equation.

[3] = tested on: BDL rat; assay: Bile duct ligation (BDL)-induced liver fibrosis; assay type: in vivo
From the text: Since fibrosis contributes directly to the progression from NAFLD to NASH, we next evaluated the effect of PBI-4547 pro-fibrotic gene expression. […] Pro-inflammatory genes were not modulated by treatment with PBI-4547. […] As liver fibrosis was relatively mild in HFD-fed mice, we performed separate studies to evaluate the antifibrotic effect of PBI-4547, in rodent models of carbon tetrachloride (CCl4)- and bile duct ligation (BDL)-induced liver fibrosis.

T1 sequence (Q9NQS5 whole entry, species assumed): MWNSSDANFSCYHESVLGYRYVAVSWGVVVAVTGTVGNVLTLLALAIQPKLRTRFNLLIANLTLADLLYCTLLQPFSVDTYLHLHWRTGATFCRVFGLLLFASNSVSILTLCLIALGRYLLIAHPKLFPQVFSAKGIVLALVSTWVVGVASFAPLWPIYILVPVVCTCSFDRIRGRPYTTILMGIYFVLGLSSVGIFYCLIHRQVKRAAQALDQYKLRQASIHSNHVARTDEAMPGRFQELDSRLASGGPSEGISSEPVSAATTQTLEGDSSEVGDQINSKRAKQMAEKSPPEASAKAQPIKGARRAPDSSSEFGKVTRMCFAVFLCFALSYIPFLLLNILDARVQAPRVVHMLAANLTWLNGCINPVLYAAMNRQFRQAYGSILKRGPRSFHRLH

For CCCCCc1cc(CCCCC)cc(CC(=O)[O-])c1.[Na+] [PBI-4547, 2-[3,5-dipentylphenyl]acetate sodium salt], the IC50 ([1]; co-treated with 125 mM sodium decanoate and increasing concentrations of PBI-4547, read-out: IC50, inhibition of GPR84/Gαi2 activation) was 17 µM, the “GPR84/Gαi2-mediated BRET signal modulation (agonist mode)” value ([1]; compound alone vs vehicle) was “did not lead to GPR84/Gαi2-mediated BRET signal modulation” and the Ki [2] was 0.088 µM. The liver collagen deposition [3] was “significantly decreased”.
